Data: patent US20260174839A1, “PN[…] OTHER VACCINES P[…] SAPONIN ADJUVANT” (priority 2022, published 2026)

What was measured:
Type in all cases: in vivo
[1] = tested on: Streptococcus pneumoniae serotype 19F; assay: Opsonophagocytosis assay of serum of immunized mice, serotype 19F; conditions: PCV13 plus QS-21 vs PCV13 plus VSA-1
Procedure: (§1) BALB/c mice used in this study were purchased from the Jackson Laboratory and maintained within an environmentally controlled, pathogen-free animal facility at the University of Alabama at Birmingham (UAB). Each human dose of PCV13 (trade name Prevnar 13 by Pfizer) is available in 0.5 mL single-dose pre-filled syringes. Groups of female BALB/c mice (8-10 weeks of age, six per group) were immunized via the subcutaneous route (s.c.) with saline, PCV 13 (50 μL), PCV13 (50 μL) plus QS-21 (20 μg), or PCV13 (50 μL) plus VSA-1 (100 μg) on days 0, 14 and 28. Serum samples were collected prior to the first immunization and at 2 weeks following the last immunization. Equal volumes of the six sera in each group were pooled together to create serum pools for each group. The serum was obtained after centrifugation and stored at −20° C. until assayed. All studies were performed according to National Institutes of Health guidelines, and protocols were approved by the UAB Institutional Animal Care and Use Committee.
(§2) Opsonophagocytosis assay for serotypes 3, 4, 6B, 9V, 14, 19A, and 19F was performed using a 4-fold multiplexed opsonization assay described in the literature. […] Opsonic indices were determined as the interpolated serum dilution that kills 50% of bacteria. […]

[2] = tested on: Streptococcus pneumoniae serotypes 3, 4, 6B, 9V, 14, 19A, and 19F; assay: Opsonophagocytosis assay, several serotypes together; conditions: adjuvant added to PCV13 vs PCV13 alone, BALB/c mice
Procedure: as §1, §2

[3] = tested on: Streptococcus pneumoniae serotype 3; assay: Opsonophagocytosis assay of serum of immunized mice, serotype 3; conditions: PCV13 plus QS-21 vs PCV13 plus VSA-1
Procedure: as §1, §2

[4] = tested on: Streptococcus pneumoniae serotype 14; assay: Opsonophagocytosis assay of serum of immunized mice, serotype 14; conditions: adjuvant added to PCV13 vs PCV13 alone; BALB/c mice
Procedure: as §1, §2

[5] = tested on: Streptococcus pneumoniae serotype 9V; assay: Opsonophagocytosis assay of serum of immunized mice, serotype 9V; conditions: PCV13 plus QS-21 vs PCV13 plus VSA-1
Procedure: as §1, §2

[6] = tested on: Streptococcus pneumoniae seven serotypes (3, 4, 6B, 9V, 14, 19A and 19F); assay: IgG subclass pneumococcal antibody ELISA, seven serotypes together (average, summary); conditions: adjuvant added to PCV13; BALB/c mice
Procedure: Four groups of female BALB/c mice (6 per group) were immunized with normal saline, one tenth human dose of PCV13, PCV13+VSA-1, and PCV13-QS21 on days 0, 14 […]. QS21 is another saponin adjuvant. Blood samples were obtained on day 42. IgG subclass of pneumococcal antibodies in the pooled serum samples of each group were determined with pneumococcal antibody ELISA for seven serotypes (3, 4, 6B, 9V, 14, 19A and 19F) using enzyme-conjugated antibodies against mouse IgG1, IgG2a or IgG3.

QS-21
opsonic titer, QS-21 superior to VSA-1, serotype 19F [1]: 1.2 fold
increase of PCV13-induced opsonic titers [2]: 1.9-4.9 fold
opsonic titer, QS-21 superior to VSA-1, serotype 3 [3]: 1.3 fold
increase of PCV13-induced opsonic titers, serotype 14 [4]: 14.9 fold
opsonic titer, QS-21 superior to VSA-1, serotype 9V [5]: 2.4 fold
IgG1, IgG2a and IgG3 antibodies titers against seven selected serotypes [6]: boosted
